According to PubChem BioAssay (NCI):
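Cells were grown in 96-well plates and exposed to each compound for 48 hours at five concentrations; endpoints were interpolated linearly between bracketing concentrations, or set to the highest concentration if not reached. TGI denotes the concentration required for complete inhibition of growth.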

Columns and labels:
Assay in all cases: NCI anticancer screen, dose series, 48 h
XF 498 CNS = test system: XF 498 CNS
NCI-H522 lung = test system: NCI-H522 lung
SF-268 CNS = test system: SF-268 CNS
A498 renal = test system: A498 renal
HL-60(TB) leukemia = test system: HL-60(TB) leukemia
NCI-H23 lung = test system: NCI-H23 lung
SF-539 CNS = test system: SF-539 CNS
RXF 393 renal = test system: RXF 393 renal
SK-MEL-2 melanoma = test system: SK-MEL-2 melanoma
SF-295 CNS = test system: SF-295 CNS
OVCAR-5 ovarian = test system: OVCAR-5 ovarian
NCI-H460 lung = test system: NCI-H460 lung
LOX IMVI melanoma = test system: LOX IMVI melanoma
SW-620 colon = test system: SW-620 colon
K-562 leukemia = test system: K-562 leukemia
UACC-257 melanoma = test system: UACC-257 melanoma
RPMI-8226 leukemia = test system: RPMI-8226 leukemia
IGROV1 ovarian = test system: IGROV1 ovarian
HOP-92 NSCLC = test system: HOP-92 NSCLC
HOP-62 NSCLC = test system: HOP-62 NSCLC
OVCAR-3 ovarian = test system: OVCAR-3 ovarian
DMS 114 small cell lung = test system: DMS 114 small cell lung
DLD-1 colon = test system: DLD-1 colon
LXFL 529 NSCLC = test system: LXFL 529 NSCLC
KM12 colon = test system: KM12 colon
SNB-19 CNS = test system: SNB-19 CNS
786-0 renal = test system: 786-0 renal
MALME-3M melanoma = test system: MALME-3M melanoma
U251 CNS = test system: U251 CNS
HT29 colon = test system: HT29 colon
SK-MEL-28 melanoma = test system: SK-MEL-28 melanoma
SNB-75 CNS = test system: SNB-75 CNS
M14 melanoma = test system: M14 melanoma
NCI-H226 lung = test system: NCI-H226 lung
SN12C renal = test system: SN12C renal
A549 NSCLC = test system: A549 NSCLC
SR leukemia = test system: SR leukemia
ACHN renal = test system: ACHN renal
TK-10 renal = test system: TK-10 renal
EKVX NSCLC = test system: EKVX NSCLC
CCRF-CEM leukemia = test system: CCRF-CEM leukemia
SK-MEL-5 melanoma = test system: SK-MEL-5 melanoma
SK-OV-3 ovarian = test system: SK-OV-3 ovarian
KM20L2 colon = test system: KM20L2 colon
UACC-62 melanoma = test system: UACC-62 melanoma
MOLT-4 leukemia = test system: MOLT-4 leukemia
M19-MEL melanoma = test system: M19-MEL melanoma
OVCAR-8 ovarian = test system: OVCAR-8 ovarian
HCT-116 colon = test system: HCT-116 colon
HCT-15 colon = test system: HCT-15 colon
COLO 205 colon = test system: COLO 205 colon
HOP-18 NSCLC = test system: HOP-18 NSCLC
UO-31 renal = test system: UO-31 renal
MCF7 breast = test system: MCF7 breast
PC-3 prostate = test system: PC-3 prostate
CAKI-1 renal = test system: CAKI-1 renal
OVCAR-4 ovarian = test system: OVCAR-4 ovarian
BT-549 breast = test system: BT-549 breast
T-47D breast = test system: T-47D breast
MDA-MB-231 breast = test system: MDA-MB-231 breast
MDA-N = test system: MDA-N
NCI/ADR-RES ovarian = test system: NCI/ADR-RES ovarian
HCC-2998 colon = test system: HCC-2998 colon
HS 578T breast = test system: HS 578T breast
MDA-MB-435 = test system: MDA-MB-435
DU-145 prostate = test system: DU-145 prostate

Q: Which TGI (XF 498 CNS) does the source give for `Cc1[nH]c2c(C)cccc2c1C1Cc2ccccc2N1` (centres undefined) here?
A: 38.4 µM

Q: And the TGI (NCI-H522 lung)?
A: 41.2 µM

Q: What about the TGI (SF-268 CNS) of the same molecule?
A: 48.2 µM

Q: What about the TGI (A498 renal) of the same molecule?
A: 87.7 µM

Q: What about the TGI (HL-60(TB) leukemia) of the same molecule?
A: 43 µM

Q: What about the TGI (NCI-H23 lung) of the same molecule?
A: 39.8 µM

Q: What about the TGI (SF-539 CNS) of the same molecule?
A: 33.7 µM

Q: What about the TGI (RXF 393 renal) of the same molecule?
A: 23.1 µM

Q: And the TGI (SK-MEL-2 melanoma)?
A: 54.3 µM

Q: And the TGI (SF-295 CNS)?
A: 41 µM

Q: What about the TGI (OVCAR-5 ovarian) of the same molecule?
A: 41.3 µM

Q: What about the TGI (NCI-H460 lung) of the same molecule?
A: 51.7 µM

Q: And the TGI (LOX IMVI melanoma)?
A: 31 µM

Q: And the TGI (SW-620 colon)?
A: 56.4 µM

Q: And the TGI (K-562 leukemia)?
A: 67 µM

Q: What about the TGI (UACC-257 melanoma) of the same molecule?
A: 42.7 µM

Q: What about the TGI (RPMI-8226 leukemia) of the same molecule?
A: 74.6 µM

Q: What about the TGI (IGROV1 ovarian) of the same molecule?
A: 36.7 µM

Q: What about the TGI (HOP-92 NSCLC) of the same molecule?
A: 0.0966 µM

Q: What about the TGI (HOP-62 NSCLC) of the same molecule?
A: 32.3 µM

Q: What about the TGI (OVCAR-3 ovarian) of the same molecule?
A: 33 µM

Q: What about the TGI (DMS 114 small cell lung) of the same molecule?
A: 45.2 µM

Q: What about the TGI (DLD-1 colon) of the same molecule?
A: 79.8 µM

Q: What about the TGI (LXFL 529 NSCLC) of the same molecule?
A: 36.4 µM

Q: What about the TGI (KM12 colon) of the same molecule?
A: 32.4 µM

Q: And the TGI (SNB-19 CNS)?
A: 69.8 µM

Q: What about the TGI (786-0 renal) of the same molecule?
A: 46.9 µM

Q: And the TGI (MALME-3M melanoma)?
A: 41.7 µM

Q: What about the TGI (U251 CNS) of the same molecule?
A: 41.4 µM

Q: And the TGI (HT29 colon)?
A: 35.3 µM

Q: And the TGI (SK-MEL-28 melanoma)?
A: 36.7 µM

Q: And the TGI (SNB-75 CNS)?
A: > 100 µM

Q: What about the TGI (M14 melanoma) of the same molecule?
A: 29.6 µM

Q: And the TGI (NCI-H226 lung)?
A: 57.1 µM

Q: What about the TGI (SN12C renal) of the same molecule?
A: 41 µM

Q: What about the TGI (A549 NSCLC) of the same molecule?
A: 62.2 µM

Q: And the TGI (SR leukemia)?
A: 66.7 µM

Q: And the TGI (ACHN renal)?
A: 74.9 µM

Q: What about the TGI (TK-10 renal) of the same molecule?
A: 62.2 µM

Q: What about the TGI (EKVX NSCLC) of the same molecule?
A: 35.9 µM

Q: And the TGI (CCRF-CEM leukemia)?
A: 74.1 µM

Q: What about the TGI (SK-MEL-5 melanoma) of the same molecule?
A: 33.4 µM

Q: And the TGI (SK-OV-3 ovarian)?
A: > 100 µM

Q: And the TGI (KM20L2 colon)?
A: 31.4 µM

Q: What about the TGI (UACC-62 melanoma) of the same molecule?
A: 32.8 µM

Q: What about the TGI (MOLT-4 leukemia) of the same molecule?
A: 48.3 µM

Q: And the TGI (M19-MEL melanoma)?
A: 46.1 µM

Q: And the TGI (OVCAR-8 ovarian)?
A: 40.2 µM

Q: What about the TGI (HCT-116 colon) of the same molecule?
A: 30.9 µM

Q: What about the TGI (HCT-15 colon) of the same molecule?
A: 49.2 µM

Q: What about the TGI (COLO 205 colon) of the same molecule?
A: 32.3 µM

Q: And the TGI (HOP-18 NSCLC)?
A: 35.2 µM

Q: What about the TGI (UO-31 renal) of the same molecule?
A: 65.7 µM

Q: How did the TGI (MCF7 breast) turn out when `COc1nc(NC2OC(COC(C)=O)C(OC(C)=O)C(OC(C)=O)C2OC(C)=O)c(N=CC=Nc2c(NC3OC(COC(C)=O)C(OC(C)=O)C(OC(C)=O)C3OC(C)=O)nc(OC)n(C)c2=O)c(=O)n1C` (centres undefined) was run?
A: > 100 µM

Q: What about the TGI (XF 498 CNS) of the same molecule?
A: 81.9 µM

Q: What about the TGI (NCI-H522 lung) of the same molecule?
A: > 100 µM

Q: And the TGI (SF-268 CNS)?
A: > 100 µM

Q: And the TGI (PC-3 prostate)?
A: > 100 µM

Q: And the TGI (A498 renal)?
A: > 100 µM

Q: What about the TGI (HL-60(TB) leukemia) of the same molecule?
A: > 100 µM

Q: And the TGI (NCI-H23 lung)?
A: > 100 µM

Q: What about the TGI (SF-539 CNS) of the same molecule?
A: > 100 µM

Q: And the TGI (RXF 393 renal)?
A: > 100 µM

Q: What about the TGI (SK-MEL-2 melanoma) of the same molecule?
A: > 100 µM

Q: What about the TGI (SF-295 CNS) of the same molecule?
A: > 100 µM

Q: And the TGI (OVCAR-5 ovarian)?
A: > 100 µM

Q: And the TGI (NCI-H460 lung)?
A: > 100 µM

Q: What about the TGI (LOX IMVI melanoma) of the same molecule?
A: > 100 µM

Q: And the TGI (SW-620 colon)?
A: > 100 µM

Q: And the TGI (K-562 leukemia)?
A: > 100 µM

Q: And the TGI (UACC-257 melanoma)?
A: > 100 µM

Q: And the TGI (CAKI-1 renal)?
A: > 100 µM

Q: And the TGI (RPMI-8226 leukemia)?
A: > 100 µM

Q: What about the TGI (IGROV1 ovarian) of the same molecule?
A: > 100 µM

Q: And the TGI (HOP-92 NSCLC)?
A: > 93.1 µM

Q: And the TGI (HOP-62 NSCLC)?
A: > 86.6 µM

Q: What about the TGI (OVCAR-3 ovarian) of the same molecule?
A: > 100 µM

Q: What about the TGI (DMS 114 small cell lung) of the same molecule?
A: > 100 µM

Q: And the TGI (DLD-1 colon)?
A: > 100 µM

Q: And the TGI (LXFL 529 NSCLC)?
A: > 100 µM

Q: What about the TGI (KM12 colon) of the same molecule?
A: > 100 µM

Q: And the TGI (SNB-19 CNS)?
A: > 100 µM

Q: And the TGI (786-0 renal)?
A: > 100 µM

Q: And the TGI (MALME-3M melanoma)?
A: > 100 µM

Q: And the TGI (U251 CNS)?
A: > 100 µM

Q: And the TGI (HT29 colon)?
A: > 100 µM

Q: What about the TGI (SK-MEL-28 melanoma) of the same molecule?
A: > 100 µM

Q: And the TGI (SNB-75 CNS)?
A: 48.2 µM

Q: What about the TGI (OVCAR-4 ovarian) of the same molecule?
A: > 100 µM

Q: And the TGI (M14 melanoma)?
A: > 100 µM

Q: And the TGI (BT-549 breast)?
A: > 100 µM

Q: What about the TGI (NCI-H226 lung) of the same molecule?
A: > 100 µM

Q: And the TGI (SN12C renal)?
A: > 100 µM

Q: What about the TGI (A549 NSCLC) of the same molecule?
A: > 100 µM

Q: And the TGI (SR leukemia)?
A: > 100 µM

Q: And the TGI (ACHN renal)?
A: > 100 µM

Q: What about the TGI (TK-10 renal) of the same molecule?
A: > 100 µM

Q: And the TGI (T-47D breast)?
A: > 100 µM

Q: And the TGI (MDA-MB-231 breast)?
A: > 100 µM

Q: What about the TGI (EKVX NSCLC) of the same molecule?
A: > 100 µM

Q: What about the TGI (CCRF-CEM leukemia) of the same molecule?
A: > 100 µM

Q: What about the TGI (SK-MEL-5 melanoma) of the same molecule?
A: > 100 µM

Q: And the TGI (MDA-N)?
A: > 100 µM

Q: What about the TGI (SK-OV-3 ovarian) of the same molecule?
A: > 100 µM

Q: What about the TGI (KM20L2 colon) of the same molecule?
A: > 100 µM

Q: And the TGI (UACC-62 melanoma)?
A: > 100 µM

Q: What about the TGI (MOLT-4 leukemia) of the same molecule?
A: > 100 µM

Q: What about the TGI (M19-MEL melanoma) of the same molecule?
A: > 100 µM

Q: And the TGI (OVCAR-8 ovarian)?
A: > 100 µM

Q: What about the TGI (NCI/ADR-RES ovarian) of the same molecule?
A: > 100 µM

Q: And the TGI (HCT-116 colon)?
A: > 100 µM

Q: And the TGI (HCC-2998 colon)?
A: > 100 µM

Q: And the TGI (HCT-15 colon)?
A: > 100 µM

Q: And the TGI (COLO 205 colon)?
A: > 100 µM

Q: And the TGI (HS 578T breast)?
A: 90.2 µM

Q: What about the TGI (HOP-18 NSCLC) of the same molecule?
A: > 100 µM

Q: And the TGI (UO-31 renal)?
A: > 100 µM

Q: And the TGI (MDA-MB-435)?
A: > 100 µM

Q: What about the TGI (DU-145 prostate) of the same molecule?
A: > 100 µM
